Data reported in patent publication US5840893A, “Compounds for treating infectious diseases” (priority 1996, dated 1998).
Values joined by “and” are separate entries in the source; they are usually repeats but may differ in a detail not shown here. Equal entries are not always repeated. “Also recorded” adds a separate entry of the source. Where two headings read alike, the source gives them in different places.

Experiments:
nuclear localization = settings: literature; cited from earlier work
[1] = system: Plasmodium falciparum clone Dd2; assay: Antimalarial activity in vitro, hypoxanthine incorporation, clone Dd2; format: cell-based; settings: for IC50: Plasmodium falciparum
Description: (§1) The antimalarial activity of the compounds was determined essentially as described in Desjardins et al. supra. Fifty Al of various concentrations of a compound of the invention, chloroquine, or pyrimethamine were added to the wells of microtiter plates, followed by 200 Al of ring-stage, synchronized, P. falciparum-infected erythrocytes (final hematocrit=1.5%, final parasitemia=1-5%). The plates were incubated for 24 hr in a candle jar kept at 37° C., and then 25 μl of [^3 H]-hypoxanthine (Amersham, Arlington Heights, Ill.; 2.5 μl Ci/well) was added. The plates were then incubated for a further 24 hr, before harvesting onto Unifilter-96 GF/C filter-microplates (Packard; Meriden, Conn.). Twenty-five μl of Microscint scintillation fluid (Packard) was added to each well of the filter-microplate, which was subsequently counted in a Top-count microplate scintillation counter (Packard). The percent of [^3 H] -hypoxanthine uptake relative to control infect-erythrocytes was used to determine the IC50 value for the compounds by non-linear regression for LD50 determination.
The Dd2 clone of P. falciparum, which was both chloroquine and pyrimethamine resistant, was utilized to compare the antimalarial activity of the remaining CNI compounds (Table VIII).

Plasmodium falciparum = assay: Antimalarial activity in vitro, hypoxanthine incorporation, series of clones; format: cell-based
Description: as §1

[2] = Toxicity study: median lethal dose in mice, i.p.; format: in vivo; settings: mouse, in vivo, ip
Description: (§2) The doses of compounds of the invention found to be lethal to 50% of the mice (LD50) were determined by intraperitoneal injection of groups of five animals with increasing doses of each compound. CNI-0294 was administered from 0, 2, 10, 20, 40, 80, 160, 320, 640, 1280 mg/kg in 0.5 ml of water/HCl; CNI-1594 at 0, 2.4, 5, 10, 20, 40, 80 mg/kg in 0.5 ml of water/HCl; CNI-1794 at 0, 20, 50, 80 mg/kg in 0.5 ml of water/HCl; and CNI-1894 at 0, 10, 20, 40, 80, 240, 480, 960 mg/kg in water/HCl. […] The percentage of animals in each group which died were utilized to calculate the LD50 by non-linear curve fitting with the Enzfit software (Elsevier Bioscience; Cambridge, UK) programmed with the Chou equation (Chou 1976, J Theor Biol 39:253-276)).
(§3) The compounds (FIGS. 4A-E), were screened for toxicity via a modified LD50 assay procedure as described above in an outbred strain of mice.

mice = assay: Toxicity study: median lethal dose in mice, i.p.; format: in vivo
Description: as §2, §3

[3] = system: Plasmodium falciparum clone W2mef; assay: Antimalarial activity in vitro, hypoxanthine incorporation, clone W2mef; format: cell-based
Description: as §1

Plasmodium berghei = assay: Four day suppression test in Plasmodium berghei infected mice; format: in vivo, Plasmodium berghei NYU-2 in female ND4 Swiss Webster mice
Description: FIG. 9. The activity of CNI-0294 against Plasmodium berghei infected mice. Female ND4 Swiss Webster mice were infected with infected erythrocytes and then treated once daily, for four days, with 50 mg/kg CNI-0294, or with distilled water. Six hours after the last dose, thin blood smears were made from each of the animals and the parasitemia was determined. The bars represent the median parasitemia (n=4 for controls and n=5 for treated).
The antimalarial activity of CNI-0294 in vivo was assessed by infecting female ND4 Swiss Webster mice with 100 μl of Plasmodium berghei NYU-2 infected mouse erythrocytes (50% parasitemia) by intraperitoneal injection. The animals were subsequently injected intraperitoneally once per day on days 1-4 of the infection with 0.5 ml water or 0.5 ml of 50 mg/kg CNI-0294 in water. Four hours after the final injection, small blood samples were taken from the tail, and thin smears stained with Dif-Quick (Baxter, Miami, Fla.). The parasitemia of control and treated animals was enumerated by inspection of at least 1000 erythrocytes in each animal.

[4] = system: Plasmodium falciparum clone FCR-3; assay: Antimalarial activity in vitro, hypoxanthine incorporation, clone FCR-3; format: cell-based
Description: as §1

in vivo = settings: mouse, plasma
Description: (§4) Standard addition curves for each test compound were constructed by adding increased amounts of drug to mouse or human A^+ plasma (Long Island Blood Services; Melville, N.Y.). […] The eluted sample was reduced to dryness in a rotary evaporator and resuspended in 1.0 ml Buffer A.
(§5) Female ND4 Swiss Webster mice (21-24 g) were obtained from Harlan Sprague Dawley (Indianapolis, Ind.) and randomly placed in groups of five in cages with free access to food and water. […] The other CNI compounds were administered intraperitoneally or by oral gavage as a solution in water titrated with sufficient HCl to dissolve the drug. At various time points, ranging from 5 min to 4 days, a single group of animals was euthanized by carbon dioxide inhalation and bled by cardiac puncture using heparin as an anticoagulant. The blood from the five mice in the group was pooled and centrifuged at 14000×g for 10 min. The volume of plasma was measured, and equal volume of Buffer A added, and the mixture extracted and analyzed as described above, except that the dried eluates were resuspended in 200 μl Buffer A and 100 μl was injected onto the high performance liquid chromatography (HPLC) system.
(§6) The area under the plasma concentration-time curve (AUC) was determined, and bioavailability was measured as AUCoral /AUCi.p.. […] The volume of distribution (VD) was calculated as dose/B, and the total clearance rate (Cltot) calculated as β*VD. Cmax and tmax are the maximal plasma concentration and time of this measurement, respectively.

[5] = system: Plasmodium falciparum clone HB3; assay: Antimalarial activity in vitro, hypoxanthine incorporation, clone HB3; format: cell-based
Description: as §1

in vitro = in vitro ADME, mouse (ND4 Swiss Webster); settings: for number of metabolites: mouse liver post-mitochondrial supernatant, NADPH; for metabolised at 1 h: mouse, liver post-mitochondrial supernatant, 60 min incubation, by peak area, read-out: drug altered (metabolic conversion)
Description: Several female ND4 Swiss Webster mice were euthanized by carbon dioxide inhalation and the livers excised and rinsed with ice cold phosphate buffered saline (pH 7.4). The livers were minced, gently homogenized in 50 mM phosphate buffer (pH 7.4) with a Dounce homogenizer, and centrifuged at 9600×g for 20 min. The post-mitochondrial supernatant was kept, glycerol added to 20%, and frozen at -70° C. in 1.0 ml aliquots until used. For each incubation, 1.0 ml of a 1.0 mg/ml drug solution was added to 3.0 ml of 50 mM phosphate buffer (pH 7.4), 1.0 ml of 2 mg/ml NADPH in 50 mM phosphate (pH 7.4), and 1.0 ml of the post-mitochondrial supernatant. Five hundred μl of each incubate was then immediately transferred to an ice-cold tube to provide the zero-time sample, and addition 500 μl aliquots removed to ice-cold tubes at 8, 15, 30, and 60 min. The samples were then extracted, and analyzed by HPLC as described in section 7.1. Control incubations were also performed where drug or post-mitochondrial supernatant was omitted. […] Peaks in the CNI compound incubations which increased over time, and were not present in control samples lacking the enzyme preparation were treated as putative metabolites.

[6] = system: Plasmodium falciparum clone D10; assay: Antimalarial activity in vitro, hypoxanthine incorporation, clone D10; format: cell-based
Description: as §1

[7] = for Clearance: Table IV, measured in a 25 gr mouse
Description: as §4, §5, §6

HIV-1 = assay: Inhibition of HIV-1 replication in cultured macrophages (Table I); format: cell-based; settings: Human immunodeficiency virus 1, Macrophage; 50% inhibition of viral growth, RT or p24, macrophages
Description: A quantitative measurement of the activity of the compounds of the invention to block the replication of HIV-1 in non-dividing cells can be determined by culture of a macrophage-tropic strain of HIV-1 on peripheral blood-derived macrophages. The cells are cultured for 5-6 days prior to infection in a medium consisting of DMEM supplemented with 10% type A/B human serum and 200 U/ml Macrophage Colony Stimulating Factor, with half the medium changed after 3 days, to reach a density of about 10^6 cells per 5 ml well. A macrophage-tropic viral stock may be grown on these cells. The concentration of infectious particles in the stock is estimated by measurement of p24 antigen concentration.
To test the effect of compounds of the invention on HIV- 1 infection in the above-described culture system, the medium is removed and replaced with medium containing HIV-1 at a concentration of 1 ng of p24 (10^4 TCID50 /ml (TCID=tissue culture infectious doses)) and a known concentration of the compound of the invention (the inhibitor). After 24 hours, the cultures are washed to remove non-adherent virus and the culture is re-fed with medium containing the inhibitor at the desired concentration. The amount of replication of HIV-1 is estimated by an assay of the reverse transcriptase activity or by an assay of the concentration of p24 antigen in the culture medium every 2-3 days throughout the post-infection period. In a preferred embodiment the anti-HIV potency of the candidate drug is measured by comparison of the concentration of reverse transcriptase (RT) or of p24 antigen in the medium of the treated and control cultures at the time of the peak of these values in non-treated control cultures, that is about day 5 or 6 post-infection. Repetition at various levels of inhibitor allows for the calculation of the concentration of inhibitor that achieves 50% inhibition of viral growth, IC50. Table I discloses the IC50 of various inhibitors.

[8] = DD2, read-out: IC50 ± standard deviation

Nc1nc2c(ncn2[C@@H]2O[C@H](COP(=O)(O)OP(=O)(O)OP(O)(O)=S)[C@@H](O)[C@H]2O)c(=O)[nH]1 [(γ-S)GTP]
inhibition of nuclear localization (nuclear localization): blocked

CC(=O)c1cc(Nc2cc(C)[n+](C)c(N)n2)cc(C(C)=O)c1.[Cl-] [CNI-0294, 2-amino-4-(3,5-diacetylphenyl)amino-1,6-dimethylpyrimidinium chloride]
IC50 ([1]; DD2, read-out: CNI-0294 IC50): 3.52 ± 0.1 µM
IC50 [1, 8]: 3.67 ± 0.57 µM
anti-malarial activity in vitro (Plasmodium falciparum): considerable anti-malarial activity; also recorded: effective against various clones of P. falciparum
IC50 (Plasmodium falciparum; Plasmodium falciparum, series of cloned parasites, read-out: median inhibitory concentration (IC50)): 1.79 to 4 µM
LD50 [2]: 588 ± 65.8 mg/kg
signs and time of toxic reactions / death (mice): no overt signs of toxicity detectable at doses approaching the LD50
tolerability (mice): very well tolerated; also recorded: well tolerated
IC50 ([3]; read-out: CNI-0294 IC50): 2.29 ± 0.22 µM
suppression / cure of P. berghei infection (Plasmodium berghei; 50 mg/kg i.p. daily for 4 days): strongly suppress P. berghei infection in mice; also recorded: not completely cured
reduction of parasitemia (Plasmodium berghei; 50 mg/kg i.p. once daily for four days, P≤0.01): 10 fold
IC50 ([4]; FCR3, read-out: CNI-0294 IC50): 3.09 ± 0.3 µM
CL/F (in vivo; ip, 50 mg/kg): 35.4 mL/min
Cmax (in vivo; ip, 50 mg/kg): 18800 ng/mL
Vd/F (in vivo; ip, 50 mg/kg): 14.1 L
k el (in vivo; ip, 50 mg/kg): 4.17e-05 s⁻¹
Cmax (in vivo; po, 50 mg/kg): 400 ng/mL
IC50 ([5]; HB3, read-out: CNI-0294 IC50): 1.79 ± 0.27 µM
number of metabolites (in vitro): three minor and one major metabolite
metabolised at 1 h (in vitro): 43.5%
IC50 ([6]; D10, read-out: CNI-0294 IC50): 4 ± 0.41 µM
relative bioavailability ([7]; mouse, in vivo): 6%
relative bioavailability ([7]; mouse, in vivo, 50 mg/kg): 6%
A (zero time intercept, distribution phase) ([7]; mouse, in vivo, ip, 50 mg/kg): 14.00 and 16.07
B (zero time intercept, elimination phase) ([7]; mouse, in vivo, ip, 50 mg/kg): 0.07 and 0.05
Cltot ([7]; mouse, in vivo, ip, 50 mg/kg): 62.70
VD ([7]; mouse, in vivo, ip, 50 mg/kg): 19.80
duration of therapeutic plasma concentration (range of P. falciparum IC50) ([7]; mouse, in vivo, ip, 50 mg/kg): approximately one
plasma maximal concentration ([7]; mouse, in vivo, ip, 50 mg/kg): 18.76 to 18.93 µg/mL
t1/2α ([7]; mouse, in vivo, ip, 50 mg/kg): 0.62 and 0.40
t1/2β ([7]; mouse, in vivo, ip, 50 mg/kg): 4.62 and 3.65
tmax ([7]; mouse, in vivo, ip, 50 mg/kg): 5
α ([7]; mouse, in vivo, ip, 50 mg/kg): 1.12 and 1.74
β ([7]; mouse, in vivo, ip, 50 mg/kg): 0.19
Bioavaliability ([7]; mouse, in vivo, po, 50 mg/kg): 0.06
time drug was detectable in plasma ([7]; mouse, in vivo, po, 50 mg/kg): at least 6 hr

CC(=O)c1cc(Nc2cc(C)nc(N)n2)cc(C(C)=O)c1 [Compound No. 11, 2-amino-4-(3,5-diacetylphenyl)amino-6-methylpyrimidine]
IC50 [1, 8]: 20.3 ± 1.62 µM
fold less active than CNI-0294 ([1]; clone Dd2): approximately 5 fold
LD50 (median lethal dose) (mice): > 160 mg/kg
tolerability (mice): also well tolerated
IC50 (HIV-1): 0.05 µM
CL/F (in vivo; ip, 50 mg/kg): 16.5 mL/min
k el (in vivo; ip, 50 mg/kg): 5.28e-05 s⁻¹
number of metabolites (in vitro): three minor and one major metabolite
metabolised at 1 h (in vitro): 65.2%
Clearance [7]: 16.50 mL/min
A (zero time intercept, distribution phase) ([7]; i.p., 50 mg/kg, water): 5.22 µg/mL
B (zero time intercept, elimination phase) ([7]; i.p., 50 mg/kg, water): 0.14 µg/mL
t1/2α ([7]; i.p., 50 mg/kg, water): 0.38 h
t1/2β ([7]; i.p., 50 mg/kg, water): 3.65 h
α ([7]; i.p., 50 mg/kg, water): 1.83 h⁻¹
time drug was detectable in plasma ([7]; oral 50 mg/kg): at least 6 hr
relative bioavailability ([7]; oral vs i.p.): 15%
Bioavaliability ([7]; oral, 50 mg/kg, water, AUCoral/AUCi.p.): 0.15
relative bioavailability ([7]; single 50 mg/kg dose, AUCoral against AUCi.p.): 15%

CC(=O)c1cccc(Nc2cc(C)nc(N)n2)c1 [Compound No. 15, 4-(3-acetylphenyl)amino-2-amino-6-methylpyrimidine]
IC50 [1, 8]: 23.7 ± 0.59 µM
IC50 relative to CNI-1194 and CNI-4594 ([1]; clone Dd2): equal to that for CNI-1194 or CNI-4594
LD50 (median lethal dose) (mice): 49.04 ± 0.08 mg/kg
tolerability (mice): appreciably more lethal
signs and time of toxic reactions / death (mice; listed as CNI-1594): death occurring in minutes and the animals displaying signs of acute neurotoxicity; also recorded: suggested a lethal neurotoxicity
IC50 (HIV-1): 0.015 µM
CL/F (in vivo; ip, 20 mg/kg): 26.4 mL/min
k el (in vivo; ip, 20 mg/kg): 1.11e-05 s⁻¹
number of metabolites (in vitro): three minor and one major metabolite
metabolised at 1 h (in vitro): 11.7%
Clearance [7]: 26.40 mL/min
A (zero time intercept, distribution phase) ([7]; i.p., 20 mg/kg, water): 1.10 µg/mL
B (zero time intercept, elimination phase) ([7]; i.p., 20 mg/kg, water): 0.01 µg/mL
VD ([7]; i.p., 20 mg/kg, water): 39.60 L
t1/2α ([7]; i.p., 20 mg/kg, water): 0.32 h
t1/2β ([7]; i.p., 20 mg/kg, water): 17.33 h
α ([7]; i.p., 20 mg/kg, water): 2.14 h⁻¹

CCc1nc(N)nc(N)c1-c1ccc(Cl)cc1 [Pyrimethamine, reference compound]
IC50 ([1]; DD2, read-out: Pyrimethamine IC50): 104 ± 9.79 µM
IC50 ([3]; read-out: Pyrimethamine IC50): 17.8 ± 13.5 µM
IC50 ([4]; FCR3, clone FCR-3, n = 2, read-out: Pyrimethamine IC50): 0.04 ± 0.01 µM
IC50 ([5]; clone HB3, n = 2, read-out: Pyrimethamine IC50): 8.97 ± 2.75 µM
IC50 ([6]; clone D10, n = 2, read-out: Pyrimethamine IC50): 171 ± 24.6 µM
